Measurements: article PMC7769561, “Antileishmanial activity of synthetic analogs of the naturally occurring quinolone alkaloid N-methyl-8-methoxyflindersin” (PLoS ONE, 2020)

Key:
[1] = system: L. (V.) panamensis promastigotes; experiment: Antileishmanial activity in L. (V.) panamensis promastigotes (resazurin, 72 h); format: cell-based, Leishmania (Viannia) panamensis; details: L. (V.) panamensis promastigotes, ± SD
Procedure: They were treated with quinoline alkaloid–like compounds at a concentration of 100, 10, 1, 0.1, and 0.01 μg/mL for 72 h at 26°C. Next, we determined antileishmanial activity using the resazurin method (Sigma-Aldrich). Promastigotes treated with amphotericin B (Sigma-Aldrich) and pentamidine (Sanofi-Aventis, Gentilly, France) were used as parasite death (positive) controls. Results were expressed as the medial effective concentration (EC50) using Prism GraphPad software for nonlinear regression analysis (https://www.graphpad.com/scientific-software/prism/).
All assays required at least three independently duplicated experiments. We determined cytotoxicity against hMDMs and effectivity in L. (V) panamensis promastigotes according to each treatment’s mortality (compound and concentration) using Eq 1, where the control mean fluorescence intensity (MFI) was 100% viability: Validityinhibition(%)=100−[MIFexposedcells/MIFunexposedcells×100] (1)
We used GraphPad Prism nonlinear regression analysis to estimate the percentage mortality with regard to CC50 and EC50. […] The antileishmanial activity with regard to promastigotes was classified as active according to Eq 2: Active=EC50<[LC50/2], (2) where LC50 is the median lethal concentration. We also used GraphPad Prism nonlinear regression analysis to determine the intracellular antileishmanial activity (concentration vs. response), depending on the infection (number of infected cells) and parasite burden (number of parasites/cell) obtained in experimental conditions. Parasite inhibition was estimated using Eq 3, where the plate MFI is 100% parasites: Infectioninhibition(%)=100−[(MIFexposedparasites/MIFunexposedparasites×100)] (3)

[2] = system: L. (V.) panamensis (MHOM/COL/87/UA140-EGFP); experiment: Therapeutic in vivo response in hamsters with experimental cutaneous leishmaniasis; design: species or system golden hamster (Mesocrisetus auratus)
From the text: We used a golden hamster (Mesocrisetus auratus) model to evaluate the therapeutic response of synthetic alkaloid compounds 2 and 8. Male and female 6-week-old hamsters with a mean live weight (LW) of 120 g were infected by a dorsal intradermic injection of L. (V.) panamensis (MHOM/COL/87/UA140-EGFP) promastigotes. After the infected hamsters developed ulcers, they were randomly divided into three groups (n = 6 each) and treated topically with 1% ointment formulated from compounds 2 and 8.
The hamsters were monitored every 4 weeks to assess their appearance and weight and the lesion size. We categorized each compound’s effectiveness pre- and posttreatment as follows: (i) cure (complete disappearance of lesions), (ii) improvement (>10% reduced lesion area), and (iii) therapeutic failure or nonresponse (increased lesion size). The health status was monitored weekly for 3 months (12 weeks) posttreatment. After 3 months, the hamsters were euthanized in a CO2 chamber. We performed histopathological analysis after necropsy of the affected tissues and organs. In addition, we evaluated treatment cytotoxicity using LW monitoring and biochemical parameters (alanine aminotransferase [ALT], creatinine, and blood urea nitrogen [BUN]) pretreatment and 45 days after ointment administration.
The in vivo efficacy of compounds 1, 2, and 8 was expressed as a percentage cure, improvement, or nonresponse compared to the beginning of treatment. Efficacy was evaluated in vivo to compare percentages, the frequency of change, and treatment cytotoxicity in the hamster model. We used GraphPad Prism to determine ROS and NO production and the apoptotic cell percentage. One- or two-way analysis of variance (ANOVA; response–time kinetics) was used to compare treatments after confirming normal data distribution. P < 0.05 was considered statistically significant by comparing untreated cells (experiments on untreated hMDMs) with infected cells (experiments on untreated and treated hMDMs).

[3] = hamsters, topical 1% ointment, 3 months posttreatment, n = 6

1,2,3,4-tetrahydro(benzo)-3-quinolin-ol [Compound 2]
EC50 Intracellular promastigotes [1]: 3.4 ± 1.1 µg/mL
EC50 ([1]; read-out: EC50 Intracellular promastigotes (converted)): 17 µM
Histopathologic analysis of the skin, cured hamsters ([2]; hamsters cured by treatment, hematoxylin/eosin): moderate orthokeratotic hyperkeratosis and low mononuclear leukocyte infiltration
Histopathologic analysis of the skin, hamsters showing improvement ([2]; hamsters showing improvement, hematoxylin/eosin): severe leukocyte infiltratation and abundant L. (V.) panamensis being phagocytosed by hMDMs
Lesion size during treatment ([2]; hamsters, topical 1% ointment): significantly reduced lesions
Improvement (reduced lesion size), percentage of the experimental group [2, 3]: 66.6%
Total cure (healing), percentage of the experimental group [2, 3]: 33.3%
